Here are results for eleven compounds from US9206159B2, “Piperazine-piperidine compounds as hepatitis C virus inhibitors” (Theravance Biopharma R&D IP, LLC, priority 2012, dated 2015).

The test system of experiment [1] is HCV genotype 1a replicon cell line. Description: HCV Genotype 1a Replicon Assay. The settings on record: Huh7.5 cell background, NS3-specific protease activity in lysates, 48 or 72 hours; for EC50: Hepatitis C virus, read-out: Genotype 1a (pEC50 class) (converted). It counts as cell-based, hepatitis C virus. The method, boiled down:
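Huh7.5-based subgenomic genotype 1a replicon cells, plated without G418, exposed to compound dose-responses (0.5% DMSO final) for 48 or 72 h at 37 °C. Lysate NS3/4a protease activity read with 15 μM FRET substrate, 20 min at 37 °C (Ex 340/Em 509 nm); EC50 from 4-parameter fit.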
On the technique in general: A replicon is a self-replicating genome or part of one, used to study replication in cells.

Experiment [2] concerns HCV genotype 1b replicon cell line. Description: HCV Genotype 1b Replicon Assay. It counts as cell-based, hepatitis C virus. The settings on record: Renilla luciferase readout, 48 hours; for Genotype 1b (pEC50 class): Huh7 cell background; for EC50: Hepatitis C virus, Huh-7, Huh7 cell background, read-out: Genotype 1b (pEC50 class) (converted). The text has this:
Assay 1: HCV Genotype 1b Replicon Assay
The HCV genotype 1b replicon cell line was obtained from Apath LLC (Brooklyn, N.Y.) (APC144; Huh7 cell background). This subgenomic replicon contains the N-terminus of the HCV core protein fused to the neomycin-resistance selectable marker. The EMCV IRES lies downstream and drives expression of humanized Renilla luciferase fused to the non-structural proteins NS3-NS5B. This cell line was used to determine compound potency using the luciferase activity readout as a measurement of compound inhibition of replicon levels.
Cells were grown at 37° C. in a 5% CO2 humidified incubator in DMEM (Invitrogen) with 10% FBS (HyClone), 1×NEAA (Invitrogen), 1× Pen-Strep (Invitrogen), and 500 μg/mL G418 (Invitrogen). On day 1 of the assay, cells were plated at 10,000 cells/well in white 96-well tissue culture plates (Costar) in 200 μL media lacking G418. Four hours later, once the cells have adhered, the media was removed and replaced with media (no G418) containing dose-responses of test compounds. Compounds were initially diluted in DMSO and then diluted another 200× in media to bring the final DMSO concentration down to 0.5%. The cells were incubated with test compounds for 48 hours. At the end of the incubation period, media and compound were removed from the plates and the luciferase activity was determined using Promega Renilla-Glo reagents.
To analyze the data, the luciferase activity was plotted vs. the compound concentration, and EC50 values were determined from a 4-parameter robust fit model with the GraphPad Prism software package (GraphPad Software, Inc., San Diego, Calif.). Results are expressed as the negative decadic logarithm of the EC50 value, pEC50.
Test compounds having a higher pEC50 value in this assay show greater inhibition of HCV genotype 1b replication.

Turning to `COC(=O)N[C@H](C(=O)N1C[C@@H](C)C[C@H]1c1nc(-c2ccc(-c3ccc(NC(=O)N4CCN(C5CCN(C(=O)OC(C)(C)C)CC5)CC4)cc3OC(F)(F)F)cc2)c[nH]1)C(C)C` [Example 2-21], the “Genotype 1a (pEC50 class)” value in experiment [1] is reported as “D (D represents pEC50>10 (EC50<0.1 nM))”. Also, in experiment [2], the “Genotype 1b (pEC50 class)” value is listed as “D (D represents pEC50>10 (EC50<0.1 nM))”.
`COC(=O)N[C@H](C(=O)N1CCC[C@H]1c1nc(-c2ccc(-c3ccc(NC(=O)N4CCC(N5CCN(C(=O)[C@H]6CC6(C)C)CC5)CC4)cc3)cc2)c[nH]1)C(C)C` [Example 3-2]: the “Genotype 1a (pEC50 class)” value in experiment [1] was “B (B represents pEC50 between 8 and 9 (EC50 between 1 and 10 nM))”. Further, the “Genotype 1b (pEC50 class)” value in experiment [2] is given as “D (D represents pEC50>10 (EC50<0.1 nM))”.
On to `COC(=O)N[C@H](C(=O)N1C[C@@H](C)C[C@H]1c1nc2c(ccc3cc(-c4ccc(NC(=O)N5CCN(C6CCN(C(=O)[C@H]7CC7(C)C)CC6)CC5)cc4OC(F)(F)F)ccc32)[nH]1)C(C)C` [Example 6-1], for which the “Genotype 1a (pEC50 class)” value in experiment [1] is “D (D represents pEC50>10 (EC50<0.1 nM))”. In addition, the “Genotype 1b (pEC50 class)” value in experiment [2] is “D (D represents pEC50>10 (EC50<0.1 nM))”.
For the compound `COC(=O)N[C@H](C(=O)N1C[C@@H](C)C[C@H]1c1nc2c(ccc3cc(-c4ccc(NC(=O)N5CCN(C6CCN(C(=O)C(C)(C)CO)CC6)CC5)cc4OC(F)(F)F)ccc32)[nH]1)C(C)C` [Example 6-4], the EC50 in experiment [1] and in experiment [2] was less than 0.1 nM throughout.
Consider `COC(=O)N[C@H](C(=O)N1C[C@@H](C)C[C@H]1c1nc(-c2ccc(-c3ccc(NC(=O)N4CCN(C5CCN(C(=O)C(C)(C)C)CC5)CC4)cc3OC(F)(F)F)cc2)c(Cl)[nH]1)C(C)C` [Example 7, [(S)-1-((2S,4S)-2-{5-Chloro-4-[4′-({4-[1-(2,2-dimethyl-propionyl)-piperidin-4-yl]-piperazine-1-carbonyl}-amino)-2′-trifluoromethoxy-biphenyl-4-yl]-1H-imidazol-2-yl}-4-methyl-pyrrolidine-1-carbonyl)-2-methyl-propyl]-carbamic acid methyl ester], for which the EC50 in experiment [1] and in experiment [2] was less than 0.1 nM in each case.
Turning to `COC(=O)N[C@H](C(=O)N1C[C@@H](C)C[C@H]1c1nc(-c2ccc(-c3ccc(NC(=O)N4CCC(N5CCN(C(=O)C(C)(C)CO)CC5)CC4)cc3OC(F)(F)F)cc2)c[nH]1)C1CCOCC1` [Example 9-1], the “Genotype 1a (pEC50 class)” value in experiment [1] is “C (C represents pEC50 between and 9 and about 10, (EC50 between 1 nM and 0.1 nM))”. Also, the “Genotype 1b (pEC50 class)” value in experiment [2] was “D (D represents pEC50>10 (EC50<0.1 nM))”.
Take `COC(=O)N[C@H](C(=O)N1C[C@@H](C)C[C@H]1c1nc(-c2ccc(-c3ccc(NC(=O)N4CCC(N5CCN(C(=O)C(C)(C)C)CC5)CC4)cc3OC(F)(F)F)cc2)c(F)[nH]1)C1CCOCC1` [Example 9-2]: the EC50 in experiment [1] and in experiment [2] was less than 0.1 nM throughout.
Turning to `COC(=O)N[C@H](C(=O)N1C[C@@H](C)C[C@H]1c1nc(-c2ccc(-c3ccc(NC(=O)N4CCC(N5CCN(C(=O)C(C)(C)CO)CC5)CC4)cc3OC(F)(F)F)cc2)c(F)[nH]1)C1CCOCC1` [Example 9-3], the EC50 in experiment [1] is 0.1 to 1 nM; in experiment [2] it was less than 0.1 nM.
The corresponding values for `COC(=O)N[C@H](C(=O)N1C[C@@H](C)C[C@H]1c1nc(-c2ccc(-c3cc(Cl)c(NC(=O)N4CCC(N5CCN(C(=O)[C@H]6CC6(C)C)C[C@@H]5C)CC4)cc3OC(F)(F)F)cc2)c[nH]1)C(C)C` [Example 11, ((S)-1-{(2S,4S)-2-[4-(5′-Chloro-4′-{[4-((S)-4-dimethylcyclopropane-carbonyl-2-methyl-piperazin-1-yl)-piperidine-1-carbonyl]-amino}-2′-trifluoromethoxy-biphenyl-4-yl)-1H-imidazol-2-yl]-4-methyl-pyrrolidine-1-carbonyl}-2-methyl-propyl)-carbamic acid methyl ester] are less than 0.1 nM and less than 0.1 nM.
Regarding `COC(=O)N[C@H](C(=O)N1C[C@@H](C)C[C@H]1c1nc2c(ccc3cc(-c4ccc(NC(=O)N5CCN(C6CCN(C(=O)C7CC7)CC6)CC5)cc4OC(F)(F)F)ccc32)[nH]1)C(C)C` [Example 16, ((S)-1-{(2S,4S)-2-[7-(4-{[4-(1-Cyclopropanecarbonyl-piperidin-4-yl)-piperazine-1-carbonyl]-amino}-2-trifluoromethoxy-phenyl)-3H-naphth[1,2-d]imidazol-2-yl]-4-methyl-pyrrolidine-1-carbonyl}-2-methyl-propyl)-carbamic acid methyl ester], the EC50 in experiment [1] and in experiment [2] was less than 0.1 nM throughout.
As for `COC(=O)N[C@H](C(=O)N1C[C@@H](C)C[C@H]1c1nc(-c2ccc(-c3ccc(NC(=O)N4CCC(N5CCN(C(=O)C(C)(C)C)CC5)CC4)cc3OC(F)(F)F)cc2)c[nH]1)C1CCOCC1` [Example 17, [(S)-2-((2S,4S)-2-{4-[4′-({4-[4-(2,2-Dimethyl-propionyl)-piperazin-1-yl]-piperidine-1-carbonyl}-amino)-2′-trifluoromethoxy-biphenyl-4-yl]-1H-imidazol-2-yl}-4-methyl-pyrrolidin-1-yl)-2-oxo-1-(tetrahydro-pyran-4-yl)-ethyl]-carbamic acid methyl ester], the figures for the EC50 in experiment [1] and in experiment [2] were 0.1 to 1 nM and less than 0.1 nM, respectively.
